From publication PMC10305148, “In Vitro Characterization and Antiviral Susceptibility of Ophidian Serpentoviruses” (Microorganisms, 2023)
Values after ≈ are worked out from the molar mass of the structure shown. Where two headings read alike, the source gives them in different places.

Columns and labels:
[1] = tested on: pathogenic herpesvirus isolated from tortoises; set-up: method as in PMID 9323927; conditions: doses of 25 or 50 µg/mL, turtle heart cell cultures; cited from earlier work
[2] = tested on: AnPSV; experiment: CPE reduction assay in DPHt cells; type: cell-based, Antaresian python serpentovirus; conditions: average ± SD; for EC50: read-out: EC50 (50% effective concentration, CPE reduction assay)
From the text: (§1) Ribavirin was obtained from ICN Pharmaceuticals, Inc. (now Bausch Health, Laval, QC, Canada). Favipiravir was purchased from AdooQ Bioscience (Irvine, CA, USA). NITD-008 was supplied by BEI Resources (Manassas, VA, USA). Enviroximine was purchased from Cayman Chemical (Ann Arbor, MI, USA), and pirodavir was purchased from Med Chem Express (Monmouth Junction, NJ, USA). Infergen (Interferon-alfacon-1), a human consensus interferon, was provided by InterMune, Inc (Brisbane, CA, USA) as an aqueous solution. Solid compounds were dissolved in DMSO at a 20× concentration to yield a final DMSO concentration of <10%. Further dilutions were performed in culture media.
(§2) Diamond python heart cells (DPHt) were grown as described above. Cells were plated in 96-well microtiter plates and grown overnight prior to the addition of the virus and test compounds. A CPE assay was conducted to determine the activity of various antiviral against BPNV, GTSV, and AnPSN. Serial half-log dilutions of the test compounds were made and added to 5 wells of the 96-well plate. Culture media was added to two wells to determine the 50% cytotoxic concentration (CC50), and the virus was added to the other three wells to determine the 50% effective concentrations (EC50). Virus and cell controls were included with each plate. The selective index was determined by dividing the CC50 by the EC50/90 to determine the SI50/90. Two to three replicates of the assays were used to evaluate each compound.

[3] = tested on: GTSV; experiment: CPE reduction assay in DPHt cells; type: cell-based, Green tree python serpentovirus; conditions: average ± SD; for EC50: read-out: EC50 (50% effective concentration, CPE reduction assay)
From the text: as §1, §2

[4] = tested on: BPNV; experiment: CPE reduction assay in DPHt cells; type: cell-based, Ball python nidovirus; conditions: average ± SD; for EC50: Ball python nidovirus, read-out: EC50 (50% effective concentration, CPE reduction assay)
From the text: as §1, §2

[5] = Cytotoxicity in uninfected wells of the CPE assay; type: cell-based, Diamond python (Morelia spilota spilota); conditions: Diamond python (Morelia spilota spilota), CC50 (50% cytotoxic concentration)
Protocol: as §2, with “compound. A confirmatory virus yield reduction (VYR) assay was conducted where supernatant from the CPE assay was collected and titered on DPHt cells to determine the 90% effective concentration (EC90), or the concentration of compound required to reduce the virus titer by one Log10.” for “compound.”

[6] = tested on: Diamond python heart cells (DPHt); experiment: Cytotoxicity in uninfected wells of the CPE assay; type: cell-based, Diamond python (Morelia spilota spilota)
Protocol: as §2, with “compound. A confirmatory virus yield reduction (VYR) assay was conducted where supernatant from the CPE assay was collected and titered on DPHt cells to determine the 90% effective concentration (EC90), or the concentration of compound required to reduce the virus titer by one Log10.” for “compound.”

[7] = tested on: AnPSV; experiment: Virus yield reduction (VYR) assay, supernatant titered on DPHt cells; type: cell-based, Antaresian python serpentovirus; conditions: for EC90: read-out: EC90 (90% effective concentration, virus yield reduction assay)
[8] = set-up: method as in PMID 19918064; conditions: rats; development ceased; cited from earlier work
[9] = tested on: Dengue virus; set-up: method as in PMID 19918064; conditions: animal models; cited from earlier work
[10] = set-up: method as in PMID 19918064; conditions: dogs; development ceased; cited from earlier work
[11] = tested on: GTSV; experiment: Virus yield reduction (VYR) assay, supernatant titered on DPHt cells; type: cell-based, Green tree python serpentovirus; conditions: for EC90: read-out: EC90 (90% effective concentration, virus yield reduction assay)
[12] = tested on: AnPNV, BPNV, and GTSV; experiment: CPE reduction assay, summary for all three serpentoviruses; type: cell-based, Ophidian serpentoviruses
From the text: as §1
as §2, with “compound. A confirmatory virus yield reduction (VYR) assay was conducted where supernatant from the CPE assay was collected and titered on DPHt cells to determine the 90% effective concentration (EC90), or the concentration of compound required to reduce the virus titer by one Log10.” for “compound.”

[13] = tested on: BPNV; experiment: Virus yield reduction (VYR) assay, supernatant titered on DPHt cells; type: cell-based, Ball python nidovirus; conditions: for EC90: Ball python nidovirus, read-out: EC90 (90% effective concentration, virus yield reduction assay)
[14] = set-up: method as in PMID 17168855; conditions: long-term treatment; cited from earlier work
[15] = Diamond python (Morelia spilota spilota)

Nc1nc2c(ncn2COCCO)c(=O)[nH]1 [Acyclovir]
activity (in words) [1]: active

CC(C)S(=O)(=O)n1c(N)nc2ccc(/C(=N/O)c3ccccc3)cc21 [Enviroximine]
EC50 (50% effective concentration, CPE reduction assay) [2]: >0.24 µg/mL | EC50 (50% effective concentration, CPE reduction assay) [3]: >4.9 µg/mL | EC50 (50% effective concentration, CPE reduction assay) [4]: >0.38 µg/mL

NC(=O)c1nc(F)c[nH]c1=O [Favipiravir]
EC50 [2]: > 320 µg/mL | CC50 [5]: > 320 µg/mL | CC50 (50% cytotoxic concentration) [6, 15]: >320 µg/mL | EC50 [3]: > 320 µg/mL | EC50 [4]: > 320 µg/mL

C#C[C@@]1(O)[C@H](O)[C@@H](CO)O[C@H]1n1ccc2c(N)ncnc21 [NITD-008]
EC90 (90% effective concentration, virus yield reduction assay) [7]: 0.76 µg/mL (≈ 2.62 µM) | EC50 (50% effective concentration, CPE reduction assay) [2]: 0.6 ± 0.3 µg/mL (≈ 2.07 µM) | toxicity (in words) [8]: toxicity was observed | CC50 (50% cytotoxic concentration) ([6]; DPHt cells, table line of AnPSV): 33 ± 9.0 µg/mL (≈ 114 µM) | CC50 (50% cytotoxic concentration) ([6]; DPHt cells, table line of BPNV): 37 ± 26 µg/mL (≈ 127 µM) | CC50 (50% cytotoxic concentration) ([6]; DPHt cells, table line of GTSV): 55 ± 42 µg/mL (≈ 189 µM) | efficacy (in words) [9]: showed promise | EC50 (50% effective concentration, CPE reduction assay) [3]: 1.4 ± 0.8 µg/mL (≈ 4.82 µM) | toxicity (in words) [10]: toxicity was observed | EC90 (90% effective concentration, virus yield reduction assay) [11]: 4.8 µg/mL (≈ 16.5 µM) | antiviral activity (in words) [12]: potent antiviral activity | EC90 (90% effective concentration, virus yield reduction assay) [13]: 1.5 µg/mL (≈ 5.17 µM) | EC50 (50% effective concentration, CPE reduction assay) [4]: 0.7 ± 0.4 µg/mL (≈ 2.41 µM)

CCOC(=O)c1ccc(OCCC2CCN(c3ccc(C)nn3)CC2)cc1 [Pirodavir, pirodavir]
EC50 [2]: 1.1 µg/mL (≈ 2.98 µM) | CC50 [5]: 7.3 µg/mL (≈ 19.8 µM) | CC50 (50% cytotoxic concentration) [6, 15]: >10 µg/mL | EC50 [3]: 0.86 µg/mL (≈ 2.33 µM) | EC50 [4]: 2.6 µg/mL (≈ 7.04 µM)

CCC(CC)COC(=O)[C@H](C)N[P@](=O)(OC[C@H]1O[C@@](C#N)(c2ccc3c(N)ncnn23)[C@H](O)[C@@H]1O)Oc1ccccc1 [Remdesivir]
EC90 [7]: < 0.001 µg/mL | EC50 [2]: < 0.022 µg/mL | CC50 [5]: 2.2 ± 1.6 µg/mL (≈ 3.65 µM) | CC50 (50% cytotoxic concentration) [6, 15]: 2.3 ± 1.8 µg/mL (≈ 3.82 µM) | EC50 [3]: < 0.022 µg/mL | EC90 [11]: < 0.001 µg/mL | antiviral activity (in words) [12]: potent antiviral activity | EC90 [13]: < 0.001 µg/mL | EC50 [4]: < 0.022 µg/mL

NC(=O)c1ncn([C@@H]2O[C@H](CO)[C@@H](O)[C@H]2O)n1 [Ribavirin]
EC90 ([7]; AnPSV, concentration reducing virus titer by one Log10): 12 µg/mL (≈ 49.1 µM) | adverse effect (in words) [14]: associated with anemia | EC50 [2]: 2 ± 0.3 µg/mL (≈ 8.19 µM) | CC50 [5]: > 1000 µg/mL | CC50 (50% cytotoxic concentration) [6, 15]: >1000 µg/mL | EC50 [3]: 7.9 ± 3 µg/mL (≈ 32.3 µM) | EC90 ([11]; GTSV, concentration reducing virus titer by one Log10): 14 µg/mL (≈ 57.3 µM) | antiviral activity (in words) [12]: potent antiviral activity | EC90 ([13]; BPNV, concentration reducing virus titer by one Log10): 1.6 µg/mL (≈ 6.55 µM) | EC50 [4]: 0.9 ± 0.2 µg/mL (≈ 3.69 µM)

Nc1nc(O)c2ncn(COC(CO)CO)c2n1 [ganciclovir]
activity (in words) [1]: active

Interferon-alfacon-1 [Infergen]
EC50 (50% effective concentration, CPE reduction assay) [2]: >0.01 µg/mL | CC50 (50% cytotoxic concentration) [6]: 0.01 µg/mL | EC50 (50% effective concentration, CPE reduction assay) [3]: >0.01 µg/mL | EC50 (50% effective concentration, CPE reduction assay) [4]: >0.01 µg/mL
